Here are results for 27 molecules from patent publication US8846704B2, “Thiopyrimidine-based compounds and uses thereof” (YM Biosciences Austraila Pty Ltd, priority 2007, dated 2014).

One test relates to BaF3 wild-type cells. In words: Cellular screening, BaF3 wild-type cells, Alamar Blue. The test is classed as cell-based. The following applies: Mus musculus, 40 hr, read-out: BAF3wt IC50_nM. An outline of the steps: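 Compounds, screened from dilution plates at 20 μM, were added as 10× final stocks to cells grown in DMEM/10% FCS/10% WEHI 3B conditioned medium. Cells were seeded at 1.1× final (50,000–200,000 cells/mL) and incubated 40 hr at 37° C, 5% CO2. Viability was read at 544 nm after a further 4–6 hours with Alamar Blue.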

In a further test the target is T1, human JAK3 (Homo sapiens, UniProt P52333).
T1 construct: The kinase domain of human JAK3 was amplified; GST (N); made in house; host or cells: Sf9 insect cells (baculovirus)
T1 sequence (P52333 822-1111 limits assumed): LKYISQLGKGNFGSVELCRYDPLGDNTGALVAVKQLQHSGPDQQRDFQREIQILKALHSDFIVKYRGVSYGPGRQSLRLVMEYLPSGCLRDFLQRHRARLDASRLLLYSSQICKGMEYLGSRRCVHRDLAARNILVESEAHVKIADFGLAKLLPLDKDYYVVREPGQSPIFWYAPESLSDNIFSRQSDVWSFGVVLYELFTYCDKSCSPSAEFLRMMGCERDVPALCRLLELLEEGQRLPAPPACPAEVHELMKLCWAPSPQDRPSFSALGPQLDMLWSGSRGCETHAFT
Put plainly: Alphascreen tyrosine kinase enzyme assay, JAK3 kinase domain. The test is classed as biochemical. The following applies: read-out: JAK3 IC50_nM. An outline of the steps:
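GST-affinity-purified human JAK3 kinase domain (baculovirus/Sf9) was pre-incubated 20 min with compound ([…]) in HEPES pH 7.5 buffer with MgCl2, vanadate and Tween 20. Biotinylated peptide substrate ([…]) and ATP were then added; phosphotyrosine was detected by AlphaScreen PY100 acceptor and streptavidin donor beads after 2–3 h.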

In the next test the target is T2, human JAK2 (Homo sapiens, UniProt O60674).
T2 construct: The kinase domain of human JAK2 was amplified; GST (N); made in house; host or cells: Sf9 insect cells (baculovirus)
T2 sequence (O60674 849-1124 limits assumed): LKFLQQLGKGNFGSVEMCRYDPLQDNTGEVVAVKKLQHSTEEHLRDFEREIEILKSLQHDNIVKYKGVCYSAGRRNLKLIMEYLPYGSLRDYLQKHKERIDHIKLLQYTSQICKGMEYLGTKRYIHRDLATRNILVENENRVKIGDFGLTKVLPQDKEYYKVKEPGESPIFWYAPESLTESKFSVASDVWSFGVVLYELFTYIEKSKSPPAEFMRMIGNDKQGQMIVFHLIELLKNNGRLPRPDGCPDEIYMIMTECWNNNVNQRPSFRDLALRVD
In words: Alphascreen tyrosine kinase enzyme assay, JAK2 kinase domain. The test is classed as biochemical. The note with it: read-out: JAK2 IC50_nM. An outline of the steps:
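JAK2 kinase domain expressed in baculovirus/Sf9 and glutathione-affinity purified. Compounds (final […]) pre-incubated 20 min with enzyme in 10 mM HEPES pH 7.5, MgCl2, NaCl, vanadate, 0.1% Tween 20.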

For the molecule `CCOC(=O)/C=C\C(=O)Nc1ccc(Sc2nc(Nc3ccc(N4CCOCC4)cc3)ncc2C)cc1` [Compound 388, (Z)-ethyl 4-(4-(5-methyl-2-(4-morpholinophenylao)pyrimidin-4-ylthio)phenylao)-4-oxobut-2-enoate], the values for the IC50 in the test on BaF3 wild-type cells, at human JAK3 and at human JAK2 were < 5 µM, < 0.1 µM and < 0.5 µM, respectively.

As to `C=CC(=O)Nc1ccc(Sc2ccnc(Nc3ccc4c(c3)OCO4)n2)cc1` [Compound 393, N-(4-(2-(benzo[d][1,3]dioxol-5-ylao)pyrimidin-4-ylthio)phenyl)acrylamide], the figures for the IC50 in the test on BaF3 wild-type cells, at human JAK3 and on human JAK2 were > 20 µM, < 0.1 µM and > 1 µM, respectively.

`CC(=O)Nc1ccc(Sc2ccnc(Nc3ccc(N4CCC(N5CCCC5)CC4)cc3)n2)cc1` [Compound 86, N-(4-(2-(4-(4-(pyrrolidin-1-yl)piperidin-1-yl)phenylao)pyrimidin-4-ylthio)phenyl)acetamide]: the IC50 in the test on BaF3 wild-type cells was < 5 µM; at human JAK3 it was < 0.5 µM; at human JAK2, > 1 µM.

With `CNC(=O)CCC(=O)Nc1ccc(Sc2nc(Nc3ccc(N4CCOCC4)cc3)ncc2C)cc1` [Compound 386, N1-methyl-N4-(4-(5-methyl-2-(4-morpholinophenylao)pyrimidin-4-ylthio)phenyl)succinamide], the IC50 in the test with BaF3 wild-type cells was > 20 µM; on human JAK3, < 0.5 µM; at human JAK2, > 1 µM.

As for `N#CCC(=O)Nc1ccc(Sc2ccnc(Nc3ccc(N4CCC(N5CCCC5)CC4)cc3)n2)cc1` [Compound 88, 2-cyano-N-(4-(2-(4-(4-(pyrrolidin-1-yl)piperidin-1-yl)phenylao)pyrimidin-4-ylthio)phenyl)acetamide], the IC50 in the test on BaF3 wild-type cells is < 5 µM; at human JAK3, < 0.5 µM; on human JAK2, > 1 µM.

Consider `C=CC(=O)Nc1ccc(Sc2ccnc(Nc3ccc(S(=O)(=O)NCc4ccccc4)cc3)n2)cc1` [Compound 368, N-(4-(2-(4-(N-benzylsulfamoyl)phenylao)pyrimidin-4-ylthio)phenyl)acrylamide], for which the IC50 was < 20 µM with BaF3 wild-type cells, < 0.1 µM on human JAK3 and > 1 µM at human JAK2.

As for `Cc1cnc(Nc2ccc(N3CCOCC3)cc2)nc1Sc1ccc(NC(=O)CCC(=O)O)cc1` [Compound 383, 4-(4-(5-methyl-2-(4-morpholinophenylao)pyrimidin-4-ylthio)phenylao)-4-oxobutanoic acid], the IC50 is < 20 µM in the test with BaF3 wild-type cells, < 0.1 µM at human JAK3 and < 0.5 µM on human JAK2.

As to `CCC(=O)Nc1ccc(Sc2nc(Nc3ccc(N4CCOCC4)cc3)ncc2Cl)cc1` [Compound 347, N-(4-(5-chloro-2-(4-morpholinophenylao)pyrimidin-4-ylthio)phenyl)propionamide], the IC50 in the test on BaF3 wild-type cells was > 20 µM; at human JAK3, < 0.1 µM; on human JAK2, > 1 µM.

Consider `C=CC(=O)Nc1ccc(Sc2nc(Nc3cccc(OCCCO)c3)ncc2C)cc1` [Compound 301, N-(4-(2-(3-(3-hydroxypropoxy)phenylao)-5-methylpyrimidin-4-ylthio)phenyl)acrylamide], for which the IC50 was < 20 µM with BaF3 wild-type cells, < 0.1 µM on human JAK3 and > 1 µM at human JAK2.

Take `C=CC(=O)Nc1ccc(Sc2ccnc(Nc3ccc(S(=O)(=O)N4CCOCC4)c(OC)c3)n2)cc1` [Compound 373, N-(4-(2-(3-methoxy-4-(morpholinosulfonyl)phenylao)pyrimidin-4-ylthio)phenyl)acrylamide]: the IC50 is < 5 µM in the test on BaF3 wild-type cells, < 0.1 µM on human JAK3 and > 1 µM on human JAK2.

On to `O=C(CCl)Nc1cccc(Sc2ccnc(Nc3ccc(N4CCOCC4)cc3)n2)c1` [Compound 332, 2-chloro-N-(3-(2-(4-morpholinophenylao)pyrimidin-4-ylthio)phenyl)acetamide], for which the IC50 with BaF3 wild-type cells was < 5 µM; at human JAK3, < 0.1 µM; on human JAK2, > 1 µM.

Regarding `Nc1ccc(Sc2nc(Nc3ccc(N4CCOCC4)cc3)ncc2Cl)cc1` [Compound 318, 4-(4-aophenylthio)-5-chloro-N-(4-morpholinophenyl)pyrimidin-2-ae], the results for the IC50 in the test with BaF3 wild-type cells, at human JAK3 and at human JAK2 were < 20 µM, < 0.1 µM and > 1 µM, respectively.

Consider `C=CC(=O)Nc1ccc(Sc2nc(Nc3ccc(N4CCOCC4)cc3)ncc2Cl)cc1` [Compound 315, N-(4-(5-chloro-2-(4-morpholinophenylao)pyrimidin-4-ylthio)phenyl)acrylmide], for which the IC50 is > 20 µM in the test on BaF3 wild-type cells, < 0.1 µM on human JAK3 and > 1 µM on human JAK2.

Take `Cc1cnc(Nc2ccc(N3CCOCC3)cc2)nc1Sc1ccc(NC(=O)/C=C/C(=O)O)cc1` [Compound 387, (E)-4-(4-(5-methyl-2-(4-morpholinophenylao)pyrimidin-4-ylthio)phenylao)-4-oxobut-2-enoic acid]: the IC50 in the test on BaF3 wild-type cells was > 20 µM; at human JAK3 it was < 0.1 µM; on human JAK2, < 1 µM.

Regarding `Cc1cnc(Nc2ccc(N3CCOCC3)cc2)nc1Sc1ccc(N2C(=O)C=CC2=O)cc1` [Compound 390, 1-(4-(5-methyl-2-(4-morpholinophenylao)pyrimidin-4-ylthio)phenyl)-1H-pyrrole-2,5-dione], the IC50 in the test with BaF3 wild-type cells was < 5 µM; on human JAK3, < 0.1 µM; at human JAK2, < 0.5 µM.

For the molecule `C=CC(=O)Nc1ccc(Sc2nc(Nc3ccc(N4CCS(=O)(=O)CC4)cc3)ncc2C)cc1` [Compound 298, N-{4-[(2-{[4-(1,1-dioxo-1λ^6,4-thiomorpholin-4-yl)phenyl]ao}-5-methylpyrimidin-4-yl)sulfanyl]phenyl}prop-2-enamide], the IC50 in the test with BaF3 wild-type cells was < 20 µM; on human JAK3, < 0.1 µM; at human JAK2, > 1 µM.

With `CSc1nc(Nc2ccc(N3CCOCC3)cc2)ncc1C` [Compound 176, 5-methyl-4-(methylthio)-N-(4-morpholinophenyl)pyrimidin-2-ae], the IC50 in the test on BaF3 wild-type cells was < 5 µM; on human JAK3, < 1 µM; on human JAK2, < 1 µM.

As for `C=CC(=O)Nc1ccc(Sc2ccnc(Nc3ccccc3O)n2)cc1` [Compound 279, N-(4-(2-(2-hydroxyphenylao)pyrimidin-4-ylthio)phenyl)acrylamide], the IC50 in the test with BaF3 wild-type cells was < 20 µM; on human JAK3, < 0.1 µM; on human JAK2, > 1 µM.

For `C=CC(=O)Nc1ccc(Sc2nc(Nc3ccc(O)cc3)ncc2C)cc1` [Compound 282, N-(4-(2-(4-hydroxyphenylao)-5-methylpyrimidin-4-ylthio)phenyl)acrylamide], the values for the IC50 in the test on BaF3 wild-type cells, on human JAK3 and at human JAK2 were < 20 µM, < 0.1 µM and > 1 µM, respectively.

For `Cc1cnc(Nc2ccc(N3CCOCC3)cc2)nc1Sc1ccc(NC(=O)/C=C/Cl)cc1` [Compound 343, (E)-3-chloro-N-(4-(5-methyl-2-(4-morpholinophenylao)pyrimidin-4-ylthio)phenyl)acrylamide], the IC50 with BaF3 wild-type cells is < 20 µM; at human JAK3, < 0.1 µM; at human JAK2, > 1 µM.

Take `NC(=O)c1nccn1Cc1ccc(Sc2ccnc(Nc3ccc(N4CCOCC4)cc3)n2)cc1` [Compound 149, 1-(4-(2-(4-morpholinophenylao)pyrimidin-4-ylthio)benzyl)-1H-imidazole-2-carboxamide]: the IC50 is < 5 µM in the test with BaF3 wild-type cells, < 0.5 µM at human JAK3 and > 1 µM at human JAK2.

In the case of `c1cn(Cc2ccc(Sc3ccnc(Nc4ccc(N5CCOCC5)cc4)n3)cc2)cn1` [Compound 127, 4-(4-((1H-imidazol-1-yl)methyl)phenylthio)-N-(4-morpholinophenyl)pyrimidin-2-ae], the IC50 in the test on BaF3 wild-type cells is > 20 µM; on human JAK3, < 0.5 µM; at human JAK2 it was < 1 µM.

With `C=CC(=O)Nc1ccc(Sc2ccnc(Nc3ccc(S(=O)(=O)N4CCOCC4)cc3)n2)cc1` [Compound 367, N-(4-(2-(4-(morpholinosulfonyl)phenylao)pyrimidin-4-ylthio)phenyl)acrylamide], the IC50 was < 20 µM in the test on BaF3 wild-type cells, < 0.1 µM at human JAK3 and > 1 µM at human JAK2.

Turning to `C=CC(=O)Nc1ccc(Sc2nc(Nc3ccc(N4CCOCC4)cc3)ncc2C)c(Cl)c1C` [Compound 171, N-(3-chloro-2-methyl-4-(5-methyl-2-(4-morpholinophenylao)pyrimidin-4-ylthio)phenyl)acrylamide], the IC50 was > 20 µM in the test on BaF3 wild-type cells, < 0.1 µM on human JAK3 and > 1 µM at human JAK2.

For the molecule `Cc1cnc(Nc2ccc(N3CCOCC3)cc2)nc1Sc1ccc(C#N)cc1` [Compound 136, 4-(5-methyl-2-(4-morpholinophenylao)pyrimidin-4-ylthio)benzonitrile], the IC50 in the test on BaF3 wild-type cells is > 20 µM; at human JAK3, < 0.5 µM; on human JAK2, > 1 µM.

Consider `Cc1cnc(Nc2ccc(N3CCOCC3)cc2)nc1Sc1ccc(N2C(=O)CCC2=O)cc1` [Compound 384, 1-(4-(5-methyl-2-(4-morpholinophenylao)pyrimidin-4-ylthio)phenyl)pyrrolidine-2,5-dione], for which the IC50 with BaF3 wild-type cells was > 20 µM; at human JAK3, < 0.1 µM; on human JAK2 it was < 0.5 µM.

As to `CCOC(=O)c1nccn1Cc1ccc(Sc2ccnc(Nc3ccc(N4CCOCC4)cc3)n2)cc1` [Compound 148, ethyl 1-(4-(2-(4-morpholinophenylao)pyrimidin-4-ylthio)benzyl)-1H-imidazole-2-carboxylate], the IC50 was < 20 µM with BaF3 wild-type cells, < 0.5 µM at human JAK3 and > 1 µM on human JAK2.
